The assay has as its system E. coli, BL21 cells. The format is cell-based. To be noted: for MIC values relative to wt Api: E. coli BL21, peptides from depletion selection; for MIC, TSB / MIC, LB / MIC, RPMI/Serum: E. coli BL21, broth microdilution, conducted in triplicate; for MIC, TSB: 33% TSB medium; for MIC, LB: LB medium; for MIC, RPMI/Serum: RPMI/Serum medium (RPMI-1640:MHB:FBS = 100:5:20). How it is done:
The E. coli strain CA244 (lacZ125(Am), e14-, trpA49(Am), relA1, spoT1) was obtained from Escherichia coli Genetic Stock Center. The E. coli BL21(DE3) electrocompetent cells were from Sigma. The following media and components were implemented for bacteria growth: lysogeny broth (LB), minimal M9 medium, Tryptic Soy Broth (TSB), Roswell Park Memorial Institute medium 1640 (RPMI-1640), Mueller Hinton Broth (MHB), Fetal Bovine Serum (FBS). For various experiments E. coli cells were grown either in LB, in 33% TSB ([21]), in M9 medium supplemented with 1% Glycerol, 1 mM MgSO4, 0.1 mM CaCl2 and 10 μg/ml thiamine, or in RPMI/Serum (RPMI-1640:MHB:FBS = 100:5:20) ([23]).
The minimal inhibitory concentration (MIC) test was performed using the broth microdilution method, adapted from the previously described procedure ([28]). The MIC tests were conducted in triplicate either in LB, 33% TSB or RPMI/Serum media.
In order to quantitatively assess the antimicrobial activity of the synthesized peptides identified by both, the negative and positive selection strategies, we determined their minimal inhibitory concentrations (MICs) for the E. coli BL21 cells in three different media: LB, as a standard laboratory medium, 33% TSB, as a medium in which PrAMPs show increased antibacterial properties ([21]), and in the more therapeutically relevant RPMI/serum media ([23]) (Table 1). […] It appears, therefore, that the positive selection strategy is more prone to identifying biologically active peptides in comparison with the negative selection approaches. Furthermore, it became apparent that some multiple substitutions can even improve the antibacterial properties of the Api-like peptides.

≈ marks a conversion by molar mass, not a printed value. Residues, ends and D or L forms follow the SMILES beside them. No end group written: not given here. *: point of attachment. Orn(α-tetramethylguanidino) = CN(C)C(=N[C@@H](CCCN)C(=O)*)N(C)C

Regarding `CC[C@H](C)[C@H](NC(=O)[C@H](Cc1ccc(O)cc1)NC(=O)[C@@H](NC(=O)[C@H](CCCNC(=N)N)NC(=O)[C@H](CCCNC(=N)N)NC(=O)[C@H](CC(N)=O)NC(=O)[C@H](CC(N)=O)NC(=O)[C@H](CCCN)N=C(N(C)C)N(C)C)C(C)C)C(=O)N1CCC[C@H]1C(=O)N[C@@H](CC(N)=O)C(=O)N1CCC[C@H]1C(=O)N[C@@H](CCCNC(=N)N)C(=O)N1CCC[C@H]1C(=O)N1CCC[C@H]1C(=O)N[C@@H](Cc1c[nH]cn1)C(=O)N1CCC[C@H]1C(=O)N[C@@H](CCCNC(=N)N)C(=O)N[C@@H](CC(C)C)C(=O)O` [Peptide R5N10] ({Orn(α-tetramethylguanidino)}-NNRRVYIPNPRPPHPRL-OH; C-terminus assumed), the “MIC values relative to wt Api” value is given as “comparable to those of wt Api”; the “MIC, TSB” value stood at 8 µM (≈ 18.5 µg/mL); the “MIC, LB” value came to 32 µM (≈ 73.9 µg/mL); the “MIC, RPMI/Serum” value turned out to be 1 µM (≈ 2.31 µg/mL).

On to `CSCC[C@H](NC(=O)[C@H](CCCNC(=N)N)NC(=O)[C@@H]1CCCN1C(=O)[C@H](Cc1ccc(O)cc1)NC(=O)[C@@H]1CCCN1C(=O)[C@H](Cc1ccccc1)NC(=O)[C@H](Cc1ccc(O)cc1)NC(=O)[C@@H](NC(=O)[C@@H]1CCCN1C(=O)[C@H](CCCNC(=N)N)NC(=O)[C@H](C)NC(=O)[C@H](CC(N)=O)NC(=O)[C@H](CCCN)N=C(N(C)C)N(C)C)C(C)C)C(=O)N1CCC[C@H]1C(=O)N[C@@H](Cc1c[nH]cn1)C(=O)N1CCC[C@H]1C(=O)N[C@@H](CCCNC(=N)N)C(=O)N[C@@H](CC(C)C)C(=O)O` [Peptide A3F8Y10M13] ({Orn(α-tetramethylguanidino)}-NARPVYFPYPRMPHPRL-OH; C-terminus assumed), for which the “MIC, TSB” value came out at 16 µM (≈ 37.2 µg/mL); the “MIC, LB” value was above 64 µM; the “MIC, RPMI/Serum” value stood at 8 µM (≈ 18.6 µg/mL).

As for GKNRPVYIYQPKPPIPRL [Peptide K2Y9K12I15], the “MIC, TSB” value is above 64 µM; the “MIC, LB” value was above 64 µM; the “MIC, RPMI/Serum” value is above 64 µM.

As for `CC[C@H](C)[C@H](NC(=O)[C@H](Cc1ccc(O)cc1)NC(=O)[C@H](CCCCN)NC(=O)[C@@H]1CCCN1C(=O)[C@H](CCCNC(=N)N)NC(=O)[C@H](CC(N)=O)NC(=O)[C@H](CC(N)=O)NC(=O)[C@H](CCCN)N=C(N(C)C)N(C)C)C(=O)N1CCC[C@H]1C(=O)N[C@@H](CCSC)C(=O)N1CCC[C@H]1C(=O)N[C@@H](CCCNC(=N)N)C(=O)N1CCC[C@H]1C(=O)N1CCC[C@H]1C(=O)N[C@@H](Cc1c[nH]cn1)C(=O)N1CCC[C@H]1C(=O)N[C@@H](CCCNC(=N)N)C(=O)N[C@@H](CC(C)C)C(=O)O` [Peptide K6M10] ({Orn(α-tetramethylguanidino)}-NNRPKYIPMPRPPHPRL-OH; C-terminus assumed), the “MIC values relative to wt Api” value is listed as “comparable to those of wt Api”; the “MIC, TSB” value was found to be 0.5 µM (≈ 1.15 µg/mL); the “MIC, LB” value came out at 8 µM (≈ 18.4 µg/mL); the “MIC, RPMI/Serum” value is 1 µM (≈ 2.3 µg/mL).

As to `CC(C)C[C@H](NC(=O)[C@H](CCCNC(=N)N)NC(=O)[C@@H]1CCCN1C(=O)[C@H](Cc1c[nH]cn1)NC(=O)[C@H](Cc1ccc(O)cc1)NC(=O)[C@@H]1CCCN1C(=O)[C@H](CCCNC(=N)N)NC(=O)[C@@H]1CCCN1C(=O)[C@@H](NC(=O)[C@H](CS)NC(=O)[C@H](Cc1c[nH]c2ccccc12)NC(=O)[C@H](CCC(N)=O)NC(=O)[C@@H](NC(=O)[C@H](CCCCN)NC(=O)[C@H](CCCNC(=N)N)NC(=O)[C@H](CC(N)=O)NC(=O)[C@H](CC(N)=O)NC(=O)[C@H](CCCN)N=C(N(C)C)N(C)C)C(C)C)C(C)C)C(=O)O` [K5Q7W8C9V10Y14] ({Orn(α-tetramethylguanidino)}-NNRKVQWCVPRPYHPRL-OH; C-terminus assumed), the “MIC, TSB” value was above 64 µM; the “MIC, LB” value was above 64 µM; the “MIC, RPMI/Serum” value was above 64 µM.

These data come from article PMC11347161, “Sequence diversity of apidaecin-like peptides arresting the terminating ribosome” (Nucleic Acids Research, 2024).
